Experiments:
[1] = test system: colon cancer CT26 cells; test: IN10018 and Docetaxel: microscopy and CRT/Annexin-V/PI flow cytometry; format: cell-based, mouse; settings: 48 hours, IN10018 5 µM, Docetaxel 0.1 µM, alone or combined
Method: CT26 cells (Institute of Cell Biology, Chinese Academy of Sciences) were cultured with RPMI-1640 (Shanghai Basalmedia, catalog number: L210KJ, batch number: F210916) + 10% FBS (Gibco, catalog number: 10099-141c, batch number: 2158737cp), and passaged twice. When the cells were in good condition, they were placed in a 24-well plate. After 24 hours of cell spreading, four groups were set up. The first group was the control group, in which culture medium was added; the second group was IN10018 at a concentration of 5µM; the third group was Docetaxel (MCE, classification number: HY-B0011, batch number: 111613) with a concentration of 0.1µM; and the fourth group was the combination group of IN10018 (5 µM) and Docetaxel (0.1µM). The drugs were mixed and cultured in a 5 % CO2 incubator at 37°C for 48 hours.
After 48 hours of drug action, the cells were observed and photographed under a microscope. The photos were saved. Then the cells were collected for flow cytometry, and the cells were washed twice with flow buffer (PBS + 2% FBS). 0.5 µl of AF647 anti-calreticulin antibody (abcam, catalog number: ab196159, batch number: CR33676773) was added to each well, and fully mixed. The cells were incubated at 4 °C for 20 minutes in the dark. […] The mixture was incubated at room temperature in the dark for 15 minutes, and then analyzed on a flow cytometer.

[2] = test system: breast cancer 4T1 cells; test: Subcutaneous allograft tumor model of breast cancer 4T1 cells in BALB/c mice; format: in vivo
Description: Mice: Female BALB/c mice aged 6-8 weeks were purchased from SHANGHAI SLAC LABORATORY ANIMAL CO. LTD. The assay began after the animals were adapted to the assay environment upon arrival. The animals were kept in IVC (independent ventilation system) cages (5 per cage) in an SPF animal room. All cages, padding and drinking water must be sterilized before use. All assay personnel should wear protective clothing and latex gloves when operating in the animal room. Cages, feed and drinking water were replaced twice a week. The feeding environment and lighting conditions were as follows: • Temperature: 20-26 °C • Humidity: 40-70% • Lighting period: 12 hours light, 12 hours no light • Cages: Made of polycarbonate, 300 mm × 180 mm × 150 mm. The padding was corn cobs, which was replaced twice a week. • Food: The assay animals had free access to food (dry pelleted food sterilized by irradiation) throughout the assay period. • Drinking water: Assay animals were free to drink sterile water. • Cage identification: The animal information card for each cage should indicate the number of animals in the cage, gender, strain, receipt date, dosing regimen, assay number, group and start date of the assay. • Animal identification: Assay animals were identified with ear tags.
Breast cancer cell 4T1 (source: Nanjing Cobioer Biotechnology Co., Ltd., catalog number: CBP60352) was maintained and passaged by INXMED (Nanjing) Co., Ltd. The cells were cultured in a monolayer in vitro in RPMI-1640 medium with 10% fetal bovine serum in a 37 °C, 5% CO2 incubator. Trypsin-EDTA was used for routine digestion and passage treatment two to three times a week. When the cells were in the exponential growth phase and the adherent confluence reached 80%-90%, the cells were harvested and plated.
0.1 mL of cell suspension containing 2 x 10^5 cells was subcutaneously inoculated on the right back of each mouse. When the tumor volume reached ~52 mm^3 (10th day after cell inoculation), the mice were randomly divided into groups for drug administration according to the tumor volume. Table 9. Dosing regimen of the test substance in 4T1 mouse transplant tumor model
The formulation and any modifications of this assay protocol had been assessed and approved by the IACUC of ArrayBridge. The use and welfare of assay animals were carried out in accordance with AAALAC regulations. The health status and mortality of animals were monitored daily, with routine checks including observation of tumor growth and the impact of drug treatment on the animals' daily behavior, such as activity, food and water intake (estimated by visual inspection), changes in body weight, physical signs, or any other abnormalities. The number of animal deaths and side effects in each group were recorded based on the number of animals in each group.
If the animal's health condition continued to deteriorate, or if the tumor volume exceeded 3,000 mm^3, or there was a serious disease or pain, euthanasia should be carried out. In the following cases, the veterinarian was notified and euthanasia was performed: obvious weight loss, i.e., weight loss greater than 20%; inability to freely eat and drink; the average tumor volume of the control group reached 2000 mm^3, the assay was terminated.
Tumor diameters were measured three times a week using calipers. The tumor volume was calculated using the formula: V = 0.5 × a × b^2, where a and b represent the long and short diameters of the tumor, respectively.
Based on the tumor volume on the first day after grouping, the tumor growth inhibition rate TGI (%) was calculated according to the following formula: TGI (%) = [1 - (average tumor volume of a treatment group - average tumor volume of the treatment group at the beginning of treatment) / (average tumor volume of the solvent control group - average tumor volume of the solvent control group at the beginning of treatment)] × 100%. […]

CC(=O)O[C@@]12CO[C@@H]1C[C@H](O)[C@@]1(C)C(=O)[C@H](O)C3=C(C)[C@@H](OC(=O)[C@H](O)[C@@H](NC(=O)OC(C)(C)C)c4ccccc4)C[C@@](O)([C@@H](OC(=O)c4ccccc4)[C@H]21)C3(C)C [Docetaxel]
cell status under a microscope [1]: poor | Tumor volume on day 0 ([2]; baseline at grouping (10th day after inoculation), mean ± standard error, 6 mice per group): 51.1 ± 13.2 mm^3 | TGI ([2]; day 21 after administration, vs control group, DTX 10 mg/kg i.p. BIW, IN10018 25 mg/kg p.o. QD, MAX10181 120 mg/kg p.o. BID): 14.9% | Tumor volume on day 21 ([2]; day 21 after administration, DTX 10 mg/kg i.p. BIW, IN10018 25 mg/kg p.o. QD, MAX10181 120 mg/kg p.o. BID, mean ± standard error): 1818.7 ± 644.0 mm^3

From patent EP4578449A1, “PHARMACEUTICAL COMBINATION OF FAK INHIBITOR AND MICROTUBULE INHIBITOR AND USE THEREOF” (Inxmed (Nanjing) Co., Ltd., priority 2022, dated 2024)
